Values after ≈ are worked out from the molar mass of the structure shown.
What was measured:
[1] = test system: Candida albicans; test: Antifungal activity against Candida albicans NCPF 400034 assessed as inhibition of fungal growth incubated for 48 hrs; assay type: functional
[2] = test system: Neurospora crassa; test: Antifungal activity against Neurospora crassa assessed as inhibition of fungal growth incubated for 48 hrs; assay type: functional
[3] = test system: Cryptococcus neoformans; test: Antifungal activity against Cryptococcus neoformans NCPF 250316 assessed as inhibition of fungal growth incubated for 48 hrs; assay type: functional
[4] = test system: Kluyveromyces marxianus; test: Antifungal activity against Candida keyfer […] 410004 assessed as inhibition of fungal growth incubated for 48 hrs; assay type: functional
[5] = test system: Aspergillus niger; test: Antifungal activity against Aspergillus niger assessed as inhibition of fungal growth incubated for 48 hrs; assay type: functional
[6] = test system: Candida albicans; test: Antifungal activity against Candida albicans ATCC 10231 assessed as reduction in fungal growth incubated for 24 hrs by CLSI based assay; assay type: functional
[7] = test system: Pichia kudriavzevii; test: Antifungal activity against Candida krusei ATCC 6358 assessed as reduction in fungal growth incubated for 24 hrs by CLSI based assay; assay type: functional
[8] = test system: Candida dubliniensis; test: Antifungal activity against Candida dubliniensis CD36 assessed as reduction in fungal growth incubated for 24 hrs by CLSI based assay; assay type: functional
[9] = test system: Kluyveromyces marxianus; test: Antifungal activity against Candida kefyr assessed as reduction in fungal growth incubated for 24 hrs by CLSI based assay; assay type: functional
[10] = test system: Meyerozyma guilliermondii; test: Antifungal activity against Meyerozyma guilliermondii assessed as reduction in fungal growth incubated for 24 hrs by CLSI based assay; assay type: functional
[11] = test system: Nakaseomyces glabratus; test: Antifungal activity against Candida glabrata CBS138 assessed as reduction in fungal growth incubated for 24 hrs by CLSI based assay; assay type: functional
[12] = test system: Candida tropicalis; test: Antifungal activity against Candida tropicalis MYA-3404 assessed as reduction in fungal growth incubated for 24 hrs by CLSI based assay; assay type: functional
[13] = test system: A549; test: Antiproliferative activity against human A549 cells assessed as inhibition of cell growth by MTT assay; assay type: functional, cell-based
[14] = test system: COLO 205; test: Antiproliferative activity against human COLO 205 cells assessed as inhibition of cell growth incubated for 48 hrs by alamarblue staining based assay; assay type: functional; settings: COLO 205, 48 h
[15] = test system: MCF7; test: Antiproliferative activity against human MCF7 cells assessed as inhibition of cell growth incubated for 48 hrs by alamarblue staining based assay; assay type: functional; settings: MCF7, 48 h
[16] = test system: A549; test: Antiproliferative activity against human A549 cells assessed as inhibition of cell growth incubated for 48 hrs by alamarblue staining based assay; assay type: functional; settings: A549, 48 h
[17] = target: Pyruvate kinase PKM (Homo sapiens, UniProt P14618); test: Inhibition of recombinant PKM2 (unknown origin)
[18] = target: cAMP and cAMP-inhibited cGMP 3',5'-cyclic phosphodiesterase 10A (Homo sapiens, UniProt Q9Y233); test: Inhibition of full length human PDE10A incubated for 1 hr by topcount Scintillation plate reader analysis
[19] = target: Albumin (Homo sapiens, UniProt P02768); test: Inhibition of Albumin (unknown origin) denaturation at 100 uM relative to control
[20] = test system: BK polyomavirus; test: Antiviral activity against BK polyomavirus MM infected in human HFF cells assessed as reduction in viral growth incubated for 7 days; assay type: functional, organism-based; settings: Betapolyomavirus hominis, 168 h
[21] = Cytotoxicity against human HFF cells assessed as cell growth inhibition by celltiter-glo assay; assay type: toxicity, cell-based
[22] = test system: Aorta; test: Vasorelaxant activity in rabbit aorta assessed as inhibition of phenylephrine-induced contraction; assay type: functional, tissue-based; settings: Oryctolagus cuniculus

Chain of Albumin (P02768 whole entry): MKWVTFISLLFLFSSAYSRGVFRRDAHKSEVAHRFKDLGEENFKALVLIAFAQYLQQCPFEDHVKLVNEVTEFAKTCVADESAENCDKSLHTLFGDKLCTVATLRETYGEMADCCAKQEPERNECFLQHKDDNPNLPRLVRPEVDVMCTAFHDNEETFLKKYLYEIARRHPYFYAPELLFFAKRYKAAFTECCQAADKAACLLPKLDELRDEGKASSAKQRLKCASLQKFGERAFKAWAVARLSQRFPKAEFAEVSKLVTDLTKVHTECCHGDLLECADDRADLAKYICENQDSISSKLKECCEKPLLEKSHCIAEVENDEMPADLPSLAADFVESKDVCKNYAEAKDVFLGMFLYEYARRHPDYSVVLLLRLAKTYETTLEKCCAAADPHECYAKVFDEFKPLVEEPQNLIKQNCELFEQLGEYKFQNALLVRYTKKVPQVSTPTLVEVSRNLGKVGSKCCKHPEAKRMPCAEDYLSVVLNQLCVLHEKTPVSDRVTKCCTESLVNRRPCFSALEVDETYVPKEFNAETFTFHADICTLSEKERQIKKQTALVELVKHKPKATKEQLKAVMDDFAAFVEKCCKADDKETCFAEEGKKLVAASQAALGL
Chain of Pyruvate kinase PKM (P14618 whole entry): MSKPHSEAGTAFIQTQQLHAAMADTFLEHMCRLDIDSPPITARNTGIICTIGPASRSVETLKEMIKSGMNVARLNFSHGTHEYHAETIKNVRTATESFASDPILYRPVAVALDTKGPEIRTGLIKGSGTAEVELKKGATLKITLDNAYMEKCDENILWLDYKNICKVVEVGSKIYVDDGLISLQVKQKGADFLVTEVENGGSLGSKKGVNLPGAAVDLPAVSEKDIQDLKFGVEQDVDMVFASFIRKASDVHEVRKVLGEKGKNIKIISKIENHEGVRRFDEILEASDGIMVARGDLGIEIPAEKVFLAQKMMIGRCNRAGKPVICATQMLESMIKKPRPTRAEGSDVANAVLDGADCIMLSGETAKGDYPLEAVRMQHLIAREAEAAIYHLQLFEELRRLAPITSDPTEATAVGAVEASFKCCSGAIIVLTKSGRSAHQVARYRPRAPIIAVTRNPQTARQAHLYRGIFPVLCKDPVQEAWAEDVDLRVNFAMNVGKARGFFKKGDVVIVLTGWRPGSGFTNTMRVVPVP
Chain of cAMP and cAMP-inhibited cGMP 3',5'-cyclic phosphodiesterase 10A (Q9Y233 whole entry): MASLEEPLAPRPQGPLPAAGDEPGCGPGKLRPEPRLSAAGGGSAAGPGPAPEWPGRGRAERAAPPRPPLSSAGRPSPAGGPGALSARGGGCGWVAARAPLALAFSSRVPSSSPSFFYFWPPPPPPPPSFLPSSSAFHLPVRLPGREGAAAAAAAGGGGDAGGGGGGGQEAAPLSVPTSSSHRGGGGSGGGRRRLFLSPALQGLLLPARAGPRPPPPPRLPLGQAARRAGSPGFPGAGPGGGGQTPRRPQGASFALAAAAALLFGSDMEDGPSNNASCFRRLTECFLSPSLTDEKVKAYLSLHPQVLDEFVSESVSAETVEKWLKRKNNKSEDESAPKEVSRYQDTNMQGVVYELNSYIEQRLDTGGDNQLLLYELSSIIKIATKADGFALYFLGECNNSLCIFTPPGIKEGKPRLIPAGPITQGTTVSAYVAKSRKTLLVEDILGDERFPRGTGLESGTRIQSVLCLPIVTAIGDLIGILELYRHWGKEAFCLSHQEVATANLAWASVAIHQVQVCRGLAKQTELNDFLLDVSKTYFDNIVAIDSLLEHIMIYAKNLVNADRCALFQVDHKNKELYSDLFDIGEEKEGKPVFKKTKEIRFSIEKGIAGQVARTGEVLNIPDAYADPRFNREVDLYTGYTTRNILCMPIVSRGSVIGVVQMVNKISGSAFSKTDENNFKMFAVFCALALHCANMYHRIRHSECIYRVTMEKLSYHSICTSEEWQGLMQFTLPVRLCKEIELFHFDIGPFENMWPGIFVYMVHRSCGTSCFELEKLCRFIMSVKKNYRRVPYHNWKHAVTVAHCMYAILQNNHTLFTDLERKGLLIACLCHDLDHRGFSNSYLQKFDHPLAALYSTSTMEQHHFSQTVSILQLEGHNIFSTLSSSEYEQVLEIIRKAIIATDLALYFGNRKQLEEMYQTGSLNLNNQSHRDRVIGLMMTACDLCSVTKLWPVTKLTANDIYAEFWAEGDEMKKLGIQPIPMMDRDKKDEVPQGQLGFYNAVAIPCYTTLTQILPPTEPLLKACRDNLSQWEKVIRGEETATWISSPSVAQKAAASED

Question: Which MIC [1] does the source give for `Cc1ccc([Se]Cc2cn3cccnc3n2)cc1` here?
Answer: Its MIC is > 37.8 µg/mL.

Question: And the MIC [2]?
Answer: The MIC was 18.9 µg/mL (≈ 62.4 µM).

Question: And the MIC [3]?
Answer: The MIC was > 36 µg/mL.

Question: And the MIC [4]?
Answer: The MIC was 18.9 µg/mL (≈ 62.4 µM).

Question: What about the MIC [5] of the same compound?
Answer: The MIC was > 37.8 µg/mL.

Question: For `C[C@@H]1[C@H](O)[C@@H](C)/C=C/C=C/C=C/C=C/C=C/C=C/C=C/[C@H](O[C@@H]2O[C@H](C)[C@@H](O)[C@H](N)[C@@H]2O)C[C@@H]2O[C@](O)(C[C@@H](O)C[C@@H](O)[C@H](O)CC[C@@H](O)C[C@@H](O)CC(=O)O[C@H]1C)C[C@H](O)[C@H]2C(=O)O` [AMPHOTERICIN B], which MIC [1] is on record?
Answer: The MIC was 0.78 µg/mL (≈ 0.844 µM).

Question: What about the MIC [2] of the same compound?
Answer: The MIC was 0.39 µg/mL (≈ 0.422 µM).

Question: And the MIC [3]?
Answer: The MIC was 0.2 µg/mL (≈ 0.216 µM).

Question: What about the MIC [4] of the same compound?
Answer: The MIC was 12.5 µg/mL (≈ 13.5 µM).

Question: What about the MIC [5] of the same compound?
Answer: Its MIC is 0.39 µg/mL (≈ 0.422 µM).

Question: For `N#Cc1ccc(C(=O)c2cnc3ncccn23)cc1`, which MIC [6] is on record?
Answer: The MIC was 0.25 µg/mL (≈ 1.01 µM).

Question: What about the MIC [7] of the same compound?
Answer: Its MIC is 0.25 µg/mL (≈ 1.01 µM).

Question: And the MIC [8]?
Answer: Its MIC is 0.062 µg/mL (≈ 0.25 µM).

Question: What about the MIC [9] of the same compound?
Answer: The MIC was 0.125 µg/mL (≈ 0.504 µM).

Question: And the MIC [10]?
Answer: The MIC was 0.031 µg/mL (≈ 0.125 µM).

Question: What about the MIC [11] of the same compound?
Answer: The MIC was 0.065 µg/mL (≈ 0.262 µM).

Question: What about the MIC [12] of the same compound?
Answer: The MIC was 0.062 µg/mL (≈ 0.25 µM).

Question: With `CC(=O)NC1(Cc2cccc3ccccc23)C(=O)N=C2N=CC=CN21` (stereo unspecified) as the compound, how does the IC50 [13] read?
Answer: The IC50 was 2.6 µM.

Question: For `COc1ccc(C(=O)N2CCN(CC(=O)c3cnc4ncccn34)CC2)cc1`, which IC50 [14] is on record?
Answer: The IC50 was 44.9 µM.

Question: And the IC50 [15]?
Answer: The IC50 was 11.6 µM.

Question: And the IC50 [16]?
Answer: The IC50 was 24 µM.

Question: And the IC50 [17]?
Answer: The IC50 was 0.314 µM.

Question: For `O=C(CN1CCN(c2ncccn2)CC1)c1cnc2ncccn12`, which IC50 [14] is on record?
Answer: Its IC50 is 65.8 µM.

Question: And the IC50 [15]?
Answer: The IC50 was 14.7 µM.

Question: What about the IC50 [16] of the same compound?
Answer: Its IC50 is 24.4 µM.

Question: And the IC50 [17]?
Answer: The IC50 was 0.45 µM.

Question: What does the source list for `O=C(c1ccc(Cl)cc1)c1cnc2ncccn12`?
Answer: MIC [6]: 0.25 µg/mL (≈ 0.97 µM); MIC [7]: 0.5 µg/mL (≈ 1.94 µM); MIC [8]: 0.5 µg/mL (≈ 1.94 µM); MIC [9]: 0.125 µg/mL (≈ 0.485 µM); MIC [10]: 0.062 µg/mL (≈ 0.241 µM); MIC [11]: 1 µg/mL (≈ 3.88 µM); MIC [12]: 0.031 µg/mL (≈ 0.12 µM)

Question: Which IC50 [18] does the source give for `Cc1c(C(=O)N2CCCC2)cnn1C(=O)Nc1ccn2cc(-c3ccccc3)nc2n1` here?
Answer: The IC50 was 0.003 µM.

Question: Which IC50 [13] does the source give for `CC(=O)NC1(Cc2ccc(Br)cc2)C(=O)N=C2N=CC=CN21` (stereo unspecified) here?
Answer: Its IC50 is 2.1 µM.

Question: With `O=C(CN1CCN(c2ccccc2)CC1)c1cnc2ncccn12` as the compound, how does the IC50 [14] read?
Answer: Its IC50 is 73.5 µM.

Question: What about the IC50 [15] of the same compound?
Answer: The IC50 was 13.5 µM.

Question: And the IC50 [16]?
Answer: The IC50 was 28.5 µM.

Question: And the IC50 [17]?
Answer: Its IC50 is 0.05 µM.

Question: Which IC50 [18] does the source give for `Cc1c(C(=O)NCc2cocn2)cnn1C(=O)Nc1ccn2cc(-c3ccccc3)nc2n1` here?
Answer: Its IC50 is 0.001 µM.

Question: With `CCOC(=O)c1ccc(-c2cn3cccnc3n2)cc1` as the compound, how does the inhibition at 100 µM [19] read?
Answer: The inhibition at 100 µM was 54.2%.

Question: Which EC50 [20] does the source give for `CS(=O)(=O)C1=CN(Cc2ccccc2)C(=O)N2CCN=C12` here?
Answer: The EC50 was 0.66 µM.

Question: And the CC50 [21]?
Answer: Its CC50 is > 150 µM.

Question: With `Cc1c(C(=O)N2CC=CC2)cnn1C(=O)Nc1ccn2cc(-c3ccccc3)nc2n1` as the compound, how does the IC50 [18] read?
Answer: The IC50 was 0.009 µM.

Question: For `Nc1cc(N)nc(-c2nc(Cc3ccccc3F)c3ncccn23)n1`, which IC50 [22] is on record?
Answer: The IC50 was 1.05 µM.

Question: For `Cc1c(C(=O)N2CCC2)cnn1C(=O)Nc1ccn2cc(-c3ccccc3)nc2n1`, which IC50 [18] is on record?
Answer: The IC50 was 0.003 µM.

Question: For `OC(Cn1cncn1)(Cn1cncn1)c1ccc(F)cc1F` [FLUCONAZOLE], which MIC [6] is on record?
Answer: The MIC was 0.5 µg/mL (≈ 1.63 µM).

Question: What about the MIC [7] of the same compound?
Answer: The MIC was 4 µg/mL (≈ 13.1 µM).

Question: What about the MIC [8] of the same compound?
Answer: The MIC was 0.5 µg/mL (≈ 1.63 µM).

Question: And the MIC [9]?
Answer: Its MIC is 1 µg/mL (≈ 3.27 µM).

Question: And the MIC [10]?
Answer: The MIC was 1 µg/mL (≈ 3.27 µM).

Question: What about the MIC [12] of the same compound?
Answer: The MIC was 1 µg/mL (≈ 3.27 µM).

Question: Which IC50 [18] does the source give for `Cc1c(C(=O)N2CCC2)cnn1C(=O)Nc1ccn2cc(-c3ccc(Cl)s3)nc2n1` here?
Answer: The IC50 was 0.004 µM.

Question: For `COc1ccc(-c2cn3cccnc3n2)cc1`, which inhibition at 100 µM [19] is on record?
Answer: Its inhibition at 100 µM is 40.9%.

Question: Which inhibition at 100 µM [19] does the source give for `O=C(O)c1ccccc1Nc1c(Cl)cccc1Cl` here?
Answer: The inhibition at 100 µM was 84.7%.

Question: What does the source list for `Cc1ccc(N2CCN(CC(=O)c3cnc4ncccn34)CC2)cc1`?
Answer: IC50 [14]: 57.8 µM; IC50 [15]: 14.5 µM; IC50 [16]: 27.1 µM; IC50 [17]: 0.06 µM

Question: Which IC50 [18] does the source give for `Cc1c(C(=O)N2CCC2)cnn1CC(=O)Nc1ccn2cc(-c3ccccc3)nc2n1` here?
Answer: The IC50 was 0.004 µM.

Question: With `CS(=O)(=O)C1=CNC(=O)N2CCN=C12` as the compound, how does the EC50 [20] read?
Answer: Its EC50 is 22.4 µM.

Question: And the CC50 [21]?
Answer: Its CC50 is > 150 µM.

Question: With `COc1ccccc1N1CCN(CC(=O)c2cnc3ncccn23)CC1` as the compound, how does the IC50 [14] read?
Answer: The IC50 was 64.8 µM.

Question: And the IC50 [15]?
Answer: Its IC50 is 12.2 µM.

Question: And the IC50 [16]?
Answer: The IC50 was 26.2 µM.

Question: What about the IC50 [17] of the same compound?
Answer: Its IC50 is 0.027 µM.

From ChEMBL document CHEMBL5532697, “Imidazopyrimidine: from a relatively exotic scaffold to an evolving structural motif in drug discovery” (RSC Med Chem, 2024)
